Experimental data published in patent publication US6010876A, “Clavanins” (The Regents of the University of California, priority 1996, dated 2000).

Legend:
E. coli ML-35p = assay: radial diffusion assay; type: cell-based; details: for potency relative to Clavanins A and B: E. coli ML-35P, radial diffusion (FIG. 5)
Procedure: (§1) In more detail, the filtrates (≈3.5 mg of protein by BCA) were concentrated to 2 ml by vacuum centrifugation in a Speed Vac Concentrator (Savant Instruments, Hicksville, N.Y.). Gel permeation chromatography was performed on a 1.2×65 cm BioGel P-10 gel permeation column with 5% acetic acid. Preparative continuous acid-urea PAGE electrophoresis was performed as described by Harwig, S. S. L. et al., Anal Biochem (1993) 208:382. Active fractions were pooled and purified by RP-HPLC a 4.6×250 mm Vydac C18 column, using various linear gradients of acetonitrile in 0.1% trifluoroacetic acid (TFA) or […],) heptafluorobutyric acid (HFBA). Throughout this multistep procedure, fractions were lyophilized, concentrated and tested for antimicrobial activity against Listeria monocytogenes strain EGD by a radial diffusion technique described in Lehrer, R. I. et al., J Immunol Methods (1991) 137:167. In these assays, the underlay gels contained 9 mM sodium phosphate and 1 mM sodium citrate buffer, 0.30 mg/ml of trypticase soy broth powder (BBL, Cockeysville, Md.) and […] at a final pH of 6.5.
(§2) In addition to Cecropin P1 and Magainin 1, the activity of Clavanin A(K) was also tested. Clavanin A(K) is identical to Clavanin A except that all of the histidine residues are replaced by lysine. […] The data are provided as minimal bacteriocidal concentrations expressed in μg/ml which are the X-intercepts of radial diffusion assays performed at pH 6.5 in an underlay that contained 10 mM buffer ([…]), 1% agarose and 0.3 mg trypticase soy powder/ml.
(§3) The effect of pH on antimicrobial activity against several organisms was tested in a pH range wherein histidine becomes comparably charged to lysine. FIGS. 6-8 show the results for native or synthetic Clavanin A and synthetic Clavanin A(K) using defensin NP-2 as a control, with respect to L. monocytogenes, E. coli, and C. albicans respectively. The radial diffusion assays were conducted as described in Examples 1 and 3 above.

MRSA 28841 = assay: radial diffusion assay, minimal bactericidal concentration; type: cell-based; details: X-intercept of radial diffusion assay, pH 6.5
Procedure: as §1, §2

E. faecium 94.132 (VR) = assay: as above; type: cell-based; details: X-intercept of radial diffusion assay, pH 6.5
Procedure: as §1, §2

P. aeruginosa MR 3007 = assay: as above; type: cell-based; details: X-intercept of radial diffusion assay, pH 6.5
Procedure: as §1, §2

S. aureus 930918-3 = assay: as above; type: cell-based; details: X-intercept of radial diffusion assay, pH 6.5
Procedure: as §1, §2

P. aeruginosa SBI-N = assay: as above; type: cell-based; details: X-intercept of radial diffusion assay, pH 6.5
Procedure: as §1, §2

E. faecium = assay: as above; type: cell-based; details: E. faecium (strain not given); X-intercept of radial diffusion assay, pH 6.5
Procedure: as §1, §2

S. typhimurium 14028s = assay: as above; type: cell-based; details: X-intercept of radial diffusion assay, pH 6.5
Procedure: as §1, §2

K. pneumoniae 2270 = assay: as above; type: cell-based; details: X-intercept of radial diffusion assay, pH 6.5
Procedure: as §1, §2

S. typhimurium 7953s = assay: as above; type: cell-based; details: X-intercept of radial diffusion assay, pH 6.5
Procedure: as §1, §2

MRSA 30371 = assay: as above; type: cell-based; details: X-intercept of radial diffusion assay, pH 6.5
Procedure: as §1, §2

E. coli BAS 894 = assay: as above; type: cell-based; details: X-intercept of radial diffusion assay, pH 6.5
Procedure: as §1, §2

E. coli mcr 106 = assay: as above; type: cell-based; details: X-intercept of radial diffusion assay, pH 6.5
Procedure: as §1, §2

P. aeruginosa MR 2133 = assay: as above; type: cell-based; details: X-intercept of radial diffusion assay, pH 6.5
Procedure: as §1, §2

E. faecalis CDC 21 (VR) = assay: as above; type: cell-based; details: X-intercept of radial diffusion assay, pH 6.5
Procedure: as §1, §2

L. monocytogenes EGD = assay: radial diffusion assay; type: cell-based, Listeria monocytogenes; details: for potency relative to Clavanins A and B: L. monocytogenes Strain EGD, radial diffusion (FIG. 5)
Procedure: as §1, §2, §3

## Cecropin P1: known antimicrobial peptide used for comparison (SWLSKTAKKLENSAKKRISEGIAIAIQGGPR; Cecropin-P1; UniProt P14661 14-44, looked up)
E. coli ML-35p; E. coli ML-35p, X-intercept of radial diffusion assay, pH 6.5
  minimal bacteriocidal concentration: 0.64 µg/mL
MRSA 28841
  minimal bacteriocidal concentration: > 200 µg/mL
E. faecium 94.132 (VR)
  minimal bacteriocidal concentration: 7.5 µg/mL
P. aeruginosa MR 3007
  minimal bacteriocidal concentration: 0.71 µg/mL
S. aureus 930918-3
  minimal bacteriocidal concentration: > 200 µg/mL
P. aeruginosa SBI-N
  minimal bacteriocidal concentration: 0.44 µg/mL
E. faecium
  minimal bacteriocidal concentration: 6.5 µg/mL
S. typhimurium 14028s
  minimal bacteriocidal concentration: 0.72 µg/mL
K. pneumoniae 2270
  minimal bacteriocidal concentration: 0.70 µg/mL
S. typhimurium 7953s
  minimal bacteriocidal concentration: 0.43 µg/mL
MRSA 30371
  minimal bacteriocidal concentration: > 200 µg/mL
E. coli BAS 894
  minimal bacteriocidal concentration: 0.41 µg/mL
E. coli mcr 106
  minimal bacteriocidal concentration: 0.54 µg/mL
P. aeruginosa MR 2133
  minimal bacteriocidal concentration: 0.51 µg/mL
E. faecalis CDC 21 (VR)
  minimal bacteriocidal concentration: > 200 µg/mL
L. monocytogenes EGD; L. monocytogenes EGD, X-intercept of radial diffusion assay, pH 6.5
  minimal bacteriocidal concentration: 6.0 µg/mL

## VFHLL GKIIH HVGNF VY'GFS HVF* [Clavanin C]
E. coli ML-35p
  potency relative to Clavanins A and B: 3-5 fold
L. monocytogenes EGD
  potency relative to Clavanins A and B: 3-5 fold

## AFKLL GRIIH HVGNF VY'GFS HVF* [Clavanin D]
E. coli ML-35p
  potency relative to Clavanins A and B: 3-5 fold
L. monocytogenes EGD
  potency relative to Clavanins A and B: 3-5 fold
